Results from patent US5066652A, “Thiomethyl and sulfinylmethyl derivatives having gastric acid antisectetory activity and pharmaceutical compositions containing them” (Chiesi Farmaceutici S.p.A., priority 1988, dated 1991).

Tested on: not listed separately
Assay: Toxicity after single administration (acute toxicity, oral)
Details: mouse, in vivo, mice, p.o., lethality 7 days after treatment, Probits method, read-out: Acute Toxicity (DL50 approx. mg/kg p.o.)
Description: Toxicity after single administration.
The tests have been carried out in IVA:NMRI (SPF) mice fasted with water ad libitum since 18 hours before treatment.
The compounds were administered by the oral route, at constant volume (10 ml/kg) in a 0.2% aqueous solution of Tween 80.
On the basis of lethality observed 7 days after the treatment, the approximate LD50 were determined according to the Probits method.

Compound	LD50 at 168 h
Fc1ccc(-n2ccnc2SCc2nc3ccccc3[nH]2)cc1 [XXIV]	~2000 mg/kg
CN(C)c1ccccc1CSc1nccn1-c1cccc(F)c1 [XIX, 1-(3'-fluorophenyl)-2-[2'-(N,N-dimethylanilyl)methylthio]imidazole.2HCl]	~1000 mg/kg

Tested on: secretion of hydrochloric acid in the stomach (Shay ulcers)
Assay: Antisecretory activity - Shay ulcers (pylorus-ligated rat)
Type: in vivo
Details: Rattus norvegicus, 2 h; α=1 represents 100% inhibition of gastric acid hypersecretion; read-out: α (approximate value of intrinsic activity)
Description: Antisecretory activity--Shay ulcers The gastric secretory inhibitory activity of the compounds of general formula (I) was determined in case of hypersecretion induced in the rat by ligation of gastroduodenal junction according to the procedure described by Shay (Shay H. et al, Gasgroenterology 5, 43-61, 1945). […] Thereafter, they were fasted for 24 hours, with water ad libitum, which period was sufficient to assure a good gastric emptying, then laparectomized under light ether anesthesia, so as to allow to effect a pylorus ligation as closer as possible to the gastroduodenal junction. Two hours after the ligation, the animals were killed by means of an ether excess and stomaches were removed. Gastric contents were recovered, after filtration through a gauze, and placed in graduated test-tubes and centrifuged at 3000×g for 15 minutes. The following parameters were evaluated on the surnatant: volume (ml); pH; free acidity by conversion of pH into H^+ μEq by means of Moore table (Ann. New York Acad. Sci. 1967, 866-874); titrable acidity, by titration of an amount with 0.02N NaOH, using phenolphtalein as the indicator. […] The results were expressed as percent inhibition of hypersecretion induced by pylorus ligation in the control rats. The obtained results are reported in table 3 as: ED50 (μmol/kg) calculated on the basis of the equation of the linear tract of does-effect curves obtained with the test compounds on volume, free and titrable acidities; […]

Compound	Emax
CN(C)c1ccccc1CSc1nccn1-c1ccccc1 [XXVIII, 1-phenyl-2-[2'-(N,N-dimethylanilyl)methylthio]imidazole. 2HCl]	100%
CN/C(=N/CCSCc1nc[nH]c1C)NC#N [Cimetidine, reference compound]	100%
COc1ccc(C)nc1CSc1ncnc2[nH]cnc12 [XLIII]	100%
Fc1ccc(-n2ccnc2SCc2nc3ccccc3[nH]2)cc1 [XXIV]	70 to 80%
CN(C)c1ccccc1CSc1nc2cscc2[nH]1 [LII, 2-[2'-(N,N-dimethylanilyl)methylthio)thieno-[3,4-d]-imidazole]	50 to 80%
COc1ccnc(CSc2nccn2-c2cccc(F)c2)c1C [XX, 1-(3'-fluorophenyl)-2-[2'-(3'-methyl-4'-methoxypyridyl)methylthio]imidazole]	70 to 80%
COc1ccc2[nH]c([S+]([O-])Cc3ncc(C)c(OC)c3C)nc2c1 (centres unmarked) [Omeprazole, reference compound]	100%
CN(C)c1ccccc1CSc1nccn1-c1cccc(F)c1 [XIX, 1-(3'-fluorophenyl)-2-[2'-(N,N-dimethylanilyl)methylthio]imidazole.2HCl]	100%

Same assay, conditions: rat, pylorus ligation, 2 h, intraduodenal or intravenous; free acid output; read-out: ED50 free acid output

Compound	ED50
CN(C)c1ccccc1CSc1nccn1-c1ccccc1 [XXVIII, 1-phenyl-2-[2'-(N,N-dimethylanilyl)methylthio]imidazole. 2HCl]	40.6 µmol/kg
CN/C(=N/CCSCc1nc[nH]c1C)NC#N [Cimetidine, reference compound]	24.1 µmol/kg
COc1ccc(C)nc1CSc1ncnc2[nH]cnc12 [XLIII]	83 µmol/kg
Fc1ccc(-n2ccnc2SCc2nc3ccccc3[nH]2)cc1 [XXIV]	12.5 µmol/kg
CN(C)c1ccccc1CSc1nc2cscc2[nH]1 [LII, 2-[2'-(N,N-dimethylanilyl)methylthio)thieno-[3,4-d]-imidazole]	45 µmol/kg
COc1ccnc(CSc2nccn2-c2cccc(F)c2)c1C [XX, 1-(3'-fluorophenyl)-2-[2'-(3'-methyl-4'-methoxypyridyl)methylthio]imidazole]	65 µmol/kg
COc1ccc2[nH]c([S+]([O-])Cc3ncc(C)c(OC)c3C)nc2c1 (centres unmarked) [Omeprazole, reference compound]	1.8 µmol/kg
CN(C)c1ccccc1CSc1nccn1-c1cccc(F)c1 [XIX, 1-(3'-fluorophenyl)-2-[2'-(N,N-dimethylanilyl)methylthio]imidazole.2HCl]	47.3 µmol/kg

Same assay, conditions: rat, pylorus ligation, 2 h, intraduodenal or intravenous; secretion volume; read-out: ED50 volume

Compound	ED50
CN(C)c1ccccc1CSc1nccn1-c1ccccc1 [XXVIII, 1-phenyl-2-[2'-(N,N-dimethylanilyl)methylthio]imidazole. 2HCl]	55.4 µmol/kg
CN/C(=N/CCSCc1nc[nH]c1C)NC#N [Cimetidine, reference compound]	47.3 µmol/kg
COc1ccc(C)nc1CSc1ncnc2[nH]cnc12 [XLIII]	89 µmol/kg
Fc1ccc(-n2ccnc2SCc2nc3ccccc3[nH]2)cc1 [XXIV]	20.5 µmol/kg
CN(C)c1ccccc1CSc1nc2cscc2[nH]1 [LII, 2-[2'-(N,N-dimethylanilyl)methylthio)thieno-[3,4-d]-imidazole]	90 µmol/kg
COc1ccnc(CSc2nccn2-c2cccc(F)c2)c1C [XX, 1-(3'-fluorophenyl)-2-[2'-(3'-methyl-4'-methoxypyridyl)methylthio]imidazole]	80 µmol/kg
COc1ccc2[nH]c([S+]([O-])Cc3ncc(C)c(OC)c3C)nc2c1 (centres unmarked) [Omeprazole, reference compound]	4.2 µmol/kg
CN(C)c1ccccc1CSc1nccn1-c1cccc(F)c1 [XIX, 1-(3'-fluorophenyl)-2-[2'-(N,N-dimethylanilyl)methylthio]imidazole.2HCl]	108 µmol/kg

Same assay, conditions: rat, pylorus ligation, 2 h, intraduodenal or intravenous; titratable acid output; read-out: ED50 titratable acid output

Compound	ED50
CN(C)c1ccccc1CSc1nccn1-c1ccccc1 [XXVIII, 1-phenyl-2-[2'-(N,N-dimethylanilyl)methylthio]imidazole. 2HCl]	44.9 µmol/kg
CN/C(=N/CCSCc1nc[nH]c1C)NC#N [Cimetidine, reference compound]	23.9 µmol/kg
COc1ccc(C)nc1CSc1ncnc2[nH]cnc12 [XLIII]	81.6 µmol/kg
Fc1ccc(-n2ccnc2SCc2nc3ccccc3[nH]2)cc1 [XXIV]	15.7 µmol/kg
CN(C)c1ccccc1CSc1nc2cscc2[nH]1 [LII, 2-[2'-(N,N-dimethylanilyl)methylthio)thieno-[3,4-d]-imidazole]	28 µmol/kg
COc1ccnc(CSc2nccn2-c2cccc(F)c2)c1C [XX, 1-(3'-fluorophenyl)-2-[2'-(3'-methyl-4'-methoxypyridyl)methylthio]imidazole]	65 µmol/kg
COc1ccc2[nH]c([S+]([O-])Cc3ncc(C)c(OC)c3C)nc2c1 (centres unmarked) [Omeprazole, reference compound]	2.3 µmol/kg
CN(C)c1ccccc1CSc1nccn1-c1cccc(F)c1 [XIX, 1-(3'-fluorophenyl)-2-[2'-(N,N-dimethylanilyl)methylthio]imidazole.2HCl]	64.3 µmol/kg

Same assay, conditions: ratio of mean ED50 on the 3 parameters of test compound to mean ED50 of omeprazole

Compound	PR (potency ratio in comparison with Omeprazole)
CN(C)c1ccccc1CSc1nccn1-c1ccccc1 [XXVIII, 1-phenyl-2-[2'-(N,N-dimethylanilyl)methylthio]imidazole. 2HCl]	17,0
CN/C(=N/CCSCc1nc[nH]c1C)NC#N [Cimetidine, reference compound]	11,5
COc1ccc(C)nc1CSc1ncnc2[nH]cnc12 [XLIII]	30,6
Fc1ccc(-n2ccnc2SCc2nc3ccccc3[nH]2)cc1 [XXIV]	5,9
CN(C)c1ccccc1CSc1nc2cscc2[nH]1 [LII, 2-[2'-(N,N-dimethylanilyl)methylthio)thieno-[3,4-d]-imidazole]	19,6
COc1ccnc(CSc2nccn2-c2cccc(F)c2)c1C [XX, 1-(3'-fluorophenyl)-2-[2'-(3'-methyl-4'-methoxypyridyl)methylthio]imidazole]	25,3
CN(C)c1ccccc1CSc1nccn1-c1cccc(F)c1 [XIX, 1-(3'-fluorophenyl)-2-[2'-(N,N-dimethylanilyl)methylthio]imidazole.2HCl]	26,4

Tested on: secretion of hydrochloric acid in the stomach
Assay: Lumen-perfused rat stomach in situ (histamine-induced hypersecretion)
Type: in vivo
Details: histamine 35 mcg/kg/min, intraduodenal, 3 hours, read-out: ED50 free acid output
Description: Lumen-perfused rat stomach in situ The experiments were done according to Ghosh M. N. and Schild H. O. (Br. J. Pharmacol. 13, 54-61, 1958). […] After a midline abdominal incision, a PVC tube was inserted into the stomach via the esophagus and the stomach was perfused with saline (37° C.) at a rate of 1 ml/min. A second tube draining the pylorus was inserted through the abdominal wall for collection of gastric secretion. […] After equilibration of basal secretion an hypersecretion was induced by infusion of histamine 35 mcg/kg/min, through the femoral vein. […] Mean gastric output was determined for a 3 hours test period following drug administration. The last 30 minutes interval prior to dosing was used as a control. The dose-response relationship was established using the maximum inhibition obtained at each individual dose.

Compound	ED50
CN(C)c1ccccc1CSc1nccn1-c1ccccc1 [XXVIII, 1-phenyl-2-[2'-(N,N-dimethylanilyl)methylthio]imidazole. 2HCl]	31.4 µmol/kg
CN/C(=N/CCSCc1nc[nH]c1C)NC#N [Cimetidine, reference compound]	11.8 µmol/kg
COc1ccc2[nH]c([S+]([O-])Cc3ncc(C)c(OC)c3C)nc2c1 (centres unmarked) [Omeprazole, reference compound]	2.23 µmol/kg
CN(C)c1ccccc1CSc1nccn1-c1cccc(F)c1 [XIX, 1-(3'-fluorophenyl)-2-[2'-(N,N-dimethylanilyl)methylthio]imidazole.2HCl]	32.2 µmol/kg

Same assay, conditions: histamine 35 mcg/kg/min, intraduodenal, 3 hours, read-out: ED50 titratable acid output

Compound	ED50
CN(C)c1ccccc1CSc1nccn1-c1ccccc1 [XXVIII, 1-phenyl-2-[2'-(N,N-dimethylanilyl)methylthio]imidazole. 2HCl]	19.9 µmol/kg
CN/C(=N/CCSCc1nc[nH]c1C)NC#N [Cimetidine, reference compound]	11.1 µmol/kg
COc1ccc2[nH]c([S+]([O-])Cc3ncc(C)c(OC)c3C)nc2c1 (centres unmarked) [Omeprazole, reference compound]	2.3 µmol/kg
CN(C)c1ccccc1CSc1nccn1-c1cccc(F)c1 [XIX, 1-(3'-fluorophenyl)-2-[2'-(N,N-dimethylanilyl)methylthio]imidazole.2HCl]	26.7 µmol/kg

Same assay, conditions: histamine, intraduodenal

Compound	α (intrinsic activity)
CN(C)c1ccccc1CSc1nccn1-c1ccccc1 [XXVIII, 1-phenyl-2-[2'-(N,N-dimethylanilyl)methylthio]imidazole. 2HCl]	1
CN/C(=N/CCSCc1nc[nH]c1C)NC#N [Cimetidine, reference compound]	1
COc1ccc2[nH]c([S+]([O-])Cc3ncc(C)c(OC)c3C)nc2c1 (centres unmarked) [Omeprazole, reference compound]	1
CN(C)c1ccccc1CSc1nccn1-c1cccc(F)c1 [XIX, 1-(3'-fluorophenyl)-2-[2'-(N,N-dimethylanilyl)methylthio]imidazole.2HCl]	1

Same assay, conditions: in comparison with omeprazole

Compound	PR = potency ratio
CN(C)c1ccccc1CSc1nccn1-c1ccccc1 [XXVIII, 1-phenyl-2-[2'-(N,N-dimethylanilyl)methylthio]imidazole. 2HCl]	11.3
CN/C(=N/CCSCc1nc[nH]c1C)NC#N [Cimetidine, reference compound]	5.1
CN(C)c1ccccc1CSc1nccn1-c1cccc(F)c1 [XIX, 1-(3'-fluorophenyl)-2-[2'-(N,N-dimethylanilyl)methylthio]imidazole.2HCl]	13.0

Tested on: gastric hemorrhagic lesions induced by absolute ethanol
Assay: Protection against gastric lesions induced in rats by necrotizing agents (absolute ethanol)
Type: in vivo
Details: po; rat, gavage 30 minutes before 1 ml absolute ethanol; lesion score ≤ 2 considered protected
Description: Protection against gastric lesions induced in rats by necrotizing agents
The experiments were done on male rats weighing 260-300 g starved (with free access to water) for 18 hours.
Absolute ethanol was administered by gavage in the volume of 1 ml.
Test substances or the vehicle alone for the controls were given by gavage 30 minutes before the necrotizing agent in a 5% suspension of methylcellulose volume 2.5 ml kg^-1. One hour after administration of the necrotizing agent, the animals were killed and examined for lesions of the glandular portion of the gastric mucosa. The lesions presenting as blackish lesions grouped in patches of varying size, usually parallel to the major axis of the stomach, were scored according to the following arbitrary scale:
1=hyperemic mucosa, or up to 3 small patches;
2=from 4 to 10 small patches;
3=more than 10 small or up to 3 medium-sized patches;
4=from 4 to 6 medium-sized patches;
5=more than 6 medium-sized or up to 3 large patches;
6=from 4 to 6 large patches;
7=from 7 to 10 large patches;
8=more than 10 large patches or extensive necrotic zones.
"Small"0 was defined as up to 2 mm across (max diameter), "medium-sized" as between 2 and 4 mm across and "large" as more than 4 mm across.
Animals with gastric lesion score ≤ 2 were considered protected.
ED50 values were calculated according to Wilcoxon method.
The results are expressed in table 5.

Compound	ED50
COc1ccc(C)nc1CSc1ncnc2[nH]cnc12 [XLIII]	60 mg/kg
Fc1ccc(-n2ccnc2SCc2nc3ccccc3[nH]2)cc1 [XXIV]	47 mg/kg
COc1ccnc(CSc2nccn2-c2cccc(F)c2)c1C [XX, 1-(3'-fluorophenyl)-2-[2'-(3'-methyl-4'-methoxypyridyl)methylthio]imidazole]	50 mg/kg
COc1ccc2[nH]c([S+]([O-])Cc3ncc(C)c(OC)c3C)nc2c1 (centres unmarked) [Omeprazole, reference compound]	73 mg/kg
CN(C)c1ccccc1CSc1nccn1-c1cccc(F)c1 [XIX, 1-(3'-fluorophenyl)-2-[2'-(N,N-dimethylanilyl)methylthio]imidazole.2HCl]	70 mg/kg

Tested on: stomach of animals
Assay: not given
Details: animals treated over a long period; cited from earlier work

Compound	carcinomas at the bottom of the stomach
COc1ccc2[nH]c([S+]([O-])Cc3ncc(C)c(OC)c3C)nc2c1 (centres unmarked) [Omeprazole, reference compound]	high incidence of carcinomas
